Data: PubChem BioAssay (NCI)
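Values below derive from 48-hour exposures of cells grown in 96-well plates, with endpoints linearly interpolated between the two concentrations bracketing the appropriate inhibition level. GI50 = concentration required for 50% inhibition of growth. TGI denotes the concentration required for complete inhibition of growth.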

What was measured:
Test in all cases: DTP human tumour cell line panel, 48 h
786-0 renal = system: 786-0 renal
EKVX NSCLC = system: EKVX NSCLC
NCI-H23 lung = system: NCI-H23 lung
NCI-H460 lung = system: NCI-H460 lung
NCI/ADR-RES ovarian = system: NCI/ADR-RES ovarian
PC-3 prostate = system: PC-3 prostate
RXF 393 renal = system: RXF 393 renal
SK-MEL-28 melanoma = system: SK-MEL-28 melanoma
SNB-19 CNS = system: SNB-19 CNS
MDA-N = system: MDA-N

| SMILES | TGI (786-0 renal) [µM] | TGI (EKVX NSCLC) [µM] | TGI (NCI-H23 lung) [µM] | TGI (NCI-H460 lung) [µM] | TGI (NCI/ADR-RES ovarian) [µM] | TGI (PC-3 prostate) [µM] | TGI (RXF 393 renal) [µM] | TGI (SK-MEL-28 melanoma) [µM] | TGI (SNB-19 CNS) [µM] | GI50 (EKVX NSCLC) [µM] | GI50 (NCI-H23 lung) [µM] | GI50 (NCI-H460 lung) [µM] | GI50 (NCI/ADR-RES ovarian) [µM] | GI50 (PC-3 prostate) [µM] | GI50 (RXF 393 renal) [µM] | GI50 (SK-MEL-28 melanoma) [µM] | GI50 (SNB-19 CNS) [µM] | TGI (MDA-N) [µM] |
| --- | --- | --- | --- | --- | --- | --- | --- | --- | --- | --- | --- | --- | --- | --- | --- | --- | --- | --- |
| O=c1oc(C(C(F)(F)F)C(F)(F)F)nc2ccccc12 | > 100 | > 100 | > 100 | > 100 | > 100 | > 100 | > 100 | > 100 | > 100 |  |  |  |  |  |  |  |  |  |
| Cc1nnc2n1N=C(c1ccc(Cl)cc1Cl)/C(=C/c1ccc(-c3ccc([N+](=O)[O-])cc3Cl)o1)S2 |  | > 100 | 28.1 | > 100 | 37.4 | > 100 | 25.1 | > 100 | > 100 | 61.2 | 12.5 | 26 | 18.4 | 31.3 | 11.5 | 57.3 | > 100 |  |
| COc1cnc2c(c1)C(=O)c1c-2n(CCCNCCO)c(=O)c2ccncc12 |  | 9.27 | 6.91 | 3.99 | 30.8 | 11.1 | 3.48 | 5.79 |  | 2.29 | 1.65 | 0.513 | 5.83 | 1.44 | 1.2 | 2.08 |  |  |
| C=C(C)CC1(O[Si](C)(C)C)C(=O)C(OCC)=C1OCC (centres undefined) | > 100 | > 100 | > 100 | > 100 | > 100 | > 100 |  | > 100 | > 100 |  |  |  |  |  |  |  |  |  |
| C=CCC1C(O[Si](C)(C)C(C)(C)C)C(CO[Si](C)(C)C(C)(C)C)OC1n1ccc(=O)[nH]c1=O (centres undefined) | 2.44 | 2.79 | 2.8 | 2.93 | 3.48 | 3.72 |  | 3.05 | 3.06 |  |  |  |  |  |  |  |  | 2.89 |
| CC1(C)CC(=O)C2(CC(CSc3ccccc3)C(CS(=O)(=O)c3ccccc3)C2)C(=O)C1 (centres undefined) | > 100 | > 100 | > 100 |  | > 100 | > 100 | > 100 | > 100 | > 100 |  |  |  |  |  |  |  |  |  |
| O=C(O)c1ccccc1N=Cc1ccc(N(CCCl)CCCl)cc1 |  | > 100 | > 100 | > 100 | > 100 |  | > 73.2 | > 100 | > 100 |  |  |  |  |  |  |  |  |  |
| CCOC(=O)Nn1c(CC#N)nnc1Cc1ccccc1 | > 100 |  | > 100 | > 100 | > 100 | > 100 | > 100 | > 100 | > 100 |  |  |  |  |  |  |  |  | > 100 |
| O=C1NC(=O)C(C(CC(=O)c2ccc(Cl)cc2)c2ccc(Cl)cc2)C(=O)N1 (centres undefined) | > 100 | > 100 | > 100 | > 100 |  | > 100 |  | > 100 | > 100 |  |  |  |  |  |  |  |  | > 100 |
| Cc1ccc(S(=O)(=O)Nn2c(O)c(C#N)c(-c3ccc(Cl)cc3)c(C#N)c2=O)cc1 | > 100 | > 100 |  | > 100 | > 100 | > 100 | > 100 | > 100 | > 100 |  |  |  |  |  |  |  |  | > 100 |
| C=CC[n+]1c2ccccc2n2cc([N+](=O)[O-])ccc21 | > 100 | > 100 | 43 |  | > 100 | > 100 | > 100 | 89.9 | > 100 |  |  |  |  |  |  |  |  | 50.7 |
| Cc1nc(N)c(N2CCN(CN)CC2)c(=O)[nH]1 | > 100 | > 100 | > 100 | > 100 | > 100 | > 100 |  | > 100 | > 100 |  |  |  |  |  |  |  |  | > 100 |
| CCOP(=O)(O)CN1CCNCCN(CP(=O)(O)OCC)CCNCC1 | > 100 | > 100 |  | > 100 | > 100 | > 100 | > 100 | > 100 | > 100 |  |  |  |  |  |  |  |  | > 100 |
| C=CCP(=O)(CC=C)C(Cl)Cl |  |  | > 100 | > 100 | > 100 | > 100 |  | > 100 | > 100 |  |  |  |  |  |  |  |  | > 100 |
| COc1cccc(C=O)c1[O-].[O]=[U](=[O])([OH2+])[OH2+] | 71.9 | > 100 | > 100 | 58.4 |  |  | 94.1 | > 100 | 45.5 |  |  |  |  |  |  |  |  |  |
| NCC(O)CSCc1ccc(Cl)cc1 (centres undefined) | > 100 |  | > 100 | > 100 | > 100 | > 100 | > 100 | > 100 | > 100 |  |  |  |  |  |  |  |  | > 100 |
| COc1cc(C2C(Cl)C(=O)N2c2c(C)n(C)n(-c3ccccc3)c2=O)ccc1O (centres undefined) | 31.6 | 70.2 | 34.2 | 59.7 | 75.8 | > 100 | 33.6 |  |  |  |  |  |  |  |  |  |  | 32.6 |
| CN=C(/N=c1\ssc(=NC)n1C)N(C)C | > 100 | > 100 | > 100 | > 100 |  |  | > 100 | > 100 | > 100 |  |  |  |  |  |  |  |  |  |

| SMILES | TGI (786-0 renal) [µM] | TGI (EKVX NSCLC) [µM] | TGI (NCI-H23 lung) [µM] | TGI (NCI-H460 lung) [µM] | TGI (NCI/ADR-RES ovarian) [µM] | TGI (PC-3 prostate) [µM] | TGI (RXF 393 renal) [µM] | TGI (SK-MEL-28 melanoma) [µM] | TGI (SNB-19 CNS) [µM] | GI50 (EKVX NSCLC) [µM] | GI50 (NCI-H23 lung) [µM] | GI50 (NCI-H460 lung) [µM] | GI50 (NCI/ADR-RES ovarian) [µM] | GI50 (PC-3 prostate) [µM] | GI50 (RXF 393 renal) [µM] | GI50 (SK-MEL-28 melanoma) [µM] | GI50 (SNB-19 CNS) [µM] | TGI (MDA-N) [µM] |
| --- | --- | --- | --- | --- | --- | --- | --- | --- | --- | --- | --- | --- | --- | --- | --- | --- | --- | --- |
| COc1ccc(-c2oc3cc(O)cc(O)c3c(=O)c2OC)cc1 |  | > 100 |  | 65.6 | > 100 | > 100 |  | > 100 | > 100 |  |  |  |  |  |  |  |  | > 100 |
| Cn1c(=O)oc2nc(-c3ccccc3)cc(C(F)(F)F)c21 | > 100 | > 100 | > 100 | > 100 | > 100 | > 100 |  | > 100 | > 100 |  |  |  |  |  |  |  |  | > 100 |
| O=C(Nc1ccccc1C(=O)NCc1ccccc1)/C(=C/c1ccccc1)NC(=O)c1ccccc1 | > 100 | > 100 | > 100 |  | > 100 | > 100 | > 100 | > 100 | > 100 |  |  |  |  |  |  |  |  |  |
| O=C(O)COc1cc(-c2ccccc2)nc2cc(F)ccc12 | > 100 | > 100 | > 100 | > 100 | > 100 | > 100 |  | > 100 | > 100 |  |  |  |  |  |  |  |  | > 100 |
| COc1cccc(N[C@@H]2c3cc4c(cc3C(c3cc(OC)c(O)c(OC)c3)[C@H]3C(=O)OCC32)OCO4)c1 (some centres undefined) |  | 14.9 | 9.96 | 1.6 | > 70.2 |  | 7.12 | > 61.2 | 27.7 |  |  |  |  |  |  |  |  |  |
| Cc1cc(OC(=O)NCn2cc(-c3ccccc3)nn2)ccc1Cl | > 100 | > 100 | > 100 | > 100 | > 100 | > 100 |  | > 100 | > 100 |  |  |  |  |  |  |  |  |  |
| CCOC(=O)c1cc(C)nc2c1c(=O)n(-c1ccccc1)c(=O)n2CCCCN1CCN(c2ccccc2)CC1 | > 100 | > 100 | > 100 |  | > 100 | > 100 | > 100 | > 100 |  |  |  |  |  |  |  |  |  |  |
| NCc1cccc(O)c1O | > 100 | > 100 |  | > 100 |  |  | > 100 | > 100 | > 100 |  |  |  |  |  |  |  |  |  |
| C=CCOn1c(C=C)nc2ccc(C)cc21 | 32.9 | 37.8 | 46 | 32.8 | > 100 | 31 |  | 38 | 46 |  |  |  |  |  |  |  |  | 35.7 |
| C/C(=N\Nc1nc2cc(C(F)(F)F)ccc2s1)c1ccccn1 | 5.5 | 5.55 | 6.74 | 22.3 | 1.48 |  | 12.5 | 5.74 | 13.3 |  |  |  |  |  |  |  |  | 14.7 |
| CCN=C1C=CC(=C(c2ccc(N(CC)CC)cc2)c2ccc(N(CC)CC)cc2)c2ccccc21 |  | 1.18 |  |  | 2.11 |  | 0.384 |  | 1.47 | 0.0378 |  |  | 0.35 |  | 0.0585 |  | 0.0504 |  |
| Cc1cc(C)c2c(c1)C(=O)/C(=C/c1ccccc1C(=O)O)C2 | > 100 | > 100 |  | > 100 |  | > 100 | > 100 | > 100 | > 100 |  |  |  |  |  |  |  |  | > 100 |
| CC1(C)CC2(CC(C)(C)N1O)NC(=O)OC2=O |  | > 100 | > 100 | > 31.6 | > 100 |  | > 100 | > 100 | > 100 |  |  |  |  |  |  |  |  |  |
| CN1CC2=C(NC(=S)NC2c2ccccc2)/C(=C/c2ccccc2)C1 (centres undefined) | > 100 | > 100 | > 100 | > 100 | > 100 | > 100 |  | 94.3 | > 100 |  |  |  |  |  |  |  |  | > 100 |
| COc1ccc2[nH]c(O)c(/C=c3/cc4c(c(-c5ccc(F)c(OC)c5)n3)=Nc3ccccc3-4)c2c1 |  | 36 | 38.2 | 3.41 | 11.2 | 38.4 | 3.01 | 4.51 | 11.6 | 8.71 | 4.68 | 1.78 | 2.56 | 8.11 | 1.53 | 2.06 | 2.85 |  |
| Cc1ccc(S(=O)CC(CF)OCn2cc(C)c(=O)[nH]c2=O)cc1 (centres undefined) | > 100 |  | > 100 | > 100 | > 100 | > 100 |  | > 100 | > 100 |  |  |  |  |  |  |  |  | > 100 |
| COc1cc(C2C3=C(COC3=O)Oc3cc4c(cc32)OCO4)cc(OC)c1O (centres undefined) | 15.5 | 94.1 | 1.81 | 4.05 |  | 4.67 |  | 89.8 | 27.6 |  |  |  |  |  |  |  |  |  |
